Molecules are shown by their SMILES.

The subject of the assay is Phytophthora infestans. The experiment in a line: microbe, parasite or virus in culture. In kind it is cell-based. The note with it: 168 h, read-out: control compared to the untreated check.
`CC(C)S(=N)(=O)c1cccc(Cl)c1C1CC(c2csc(C3CCN(C(=O)Cn4ccnc(C(F)(F)F)c4=O)CC3)n2)=NO1` (centres unmarked) [Compound 64]: the inhibition of growth at 30 ppm is ≥ 70%.
Next, `CS(=N)(=O)c1cccc(Cl)c1C1CC(c2csc(C3CCN(C(=O)Cn4cc(Cl)cc(C(F)(F)F)c4=O)CC3)n2)=NO1` (centres unmarked) [Compound 1, 5-chloro-1-(2-(4-(4-(5-(2-chloro-6-(S-methylsulfonimidoyl)phenyl)-4,5-dihydroisoxazol-3-yl)thiazol-2-yl)piperidin-1-yl)-2-oxoethyl)-3-(trifluoromethyl)pyridin-2(1H)-one]: ≥ 70%.
Consider `Cc1cc(C(F)(F)F)nn1CC(=O)N1CCC(c2nc(C3=NOC(c4c(F)cccc4N=S(C)(C)=O)C3)cs2)CC1` (centres unmarked) [Compound 6, ((3-fluoro-2-(3-(2-(1-(2-(5-methyl-3-(trifluoromethyl)-1H-pyrazol-1-yl)acetyl)piperidin-4-yl)thiazol-4-yl)-4,5-dihydroisoxazol-5-yl)phenyl)imino)dimethyl-λ^6-sulfanone], for which the inhibition of growth at 30 ppm was ≥ 70%.
Take `CS(=N)(=O)c1cccc(Cl)c1C1CC(c2csc(C3CCN(C(=O)Cn4cc(C(F)(F)F)cc(Cl)c4=O)CC3)n2)=NO1` (centres unmarked) [Compound 2, 3-chloro-1-(2-(4-(4-(5-(2-chloro-6-(S-methylsulfonimidoyl)phenyl)-4,5-dihydroisoxazol-3-yl)thiazol-2-yl)piperidin-1-yl)-2-oxoethyl)-5-(trifluoromethyl)pyridin-2(1H)-one]: the inhibition of growth at 30 ppm was ≥ 70%.
As for `CS(=N)(=O)c1cccc(C#N)c1C1CC(c2csc(C3CCN(C(=O)Cn4nc(C(F)F)cc4C(F)F)CC3)n2)=NO1` (centres unmarked) [Compound 164], the inhibition of growth at 30 ppm was ≥ 70%.
As for `CS(=N)(=O)c1cccc(Cl)c1C1CC(c2csc(C3CCN(C(=O)Cn4cc(C(F)(F)F)ccc4=O)CC3)n2)=NO1` (centres unmarked) [Compound 169, 1-(2-(4-(4-(5-(2-chloro-6-(S-methylsulfonimidoyl)phenyl)-4,5-dihydroisoxazol-3-yl)thiazol-2-yl)piperidin-1-yl)-2-oxoethyl)-5-(trifluoromethyl)pyridin-2(1H)-one], the figure is ≥ 70%.
As for `CN=S(C)(=O)c1cccc(Cl)c1C1CC(c2csc(C3CCN(C(=O)Cn4c(C)ccc(C(F)(F)F)c4=O)CC3)n2)=NO1` (centres unmarked) [Compound 174], the figure is ≥ 70%; as for `CS(=N)(=O)c1cccc(Cl)c1C1CC(c2csc(C3CCN(C(=O)Cn4nc(C(F)F)cc4C(F)F)CC3)n2)=NO1` (centres unmarked) [Compound 3, (2-(3-(2-(1-(2-(3,5-bis (difluoromethyl)-1H-pyrazol-1-yl)acetyl)piperidin-4-yl)thiazol-4-yl)-4,5-dihydroisoxazol-5-yl)-3-chlorophenyl) (imino) (methyl)-λ^6-sulfanone], ≥ 70%.

The values are drawn from patent US12577239B2, “Sulfilimines or sulfoximines containing fungicidal heterocyclic compounds” (PI INDUSTRIES LTD., priority 2019, dated 2026).
